Values after ≈ are worked out from the molar mass of the structure shown.
How the values were obtained:
Test in all cases: MIC, two-fold dilution method on Müller-Hinton agar
Type in all cases: cell-based
Conditions in all cases: incubated at 37°C for 20 hours
[1] = system: Acinetobacter calcoaceticus ATCC 15473
Protocol: (§1) The same procedures as described in Example 163 were repeated using 7-amino-1,8-dimethyl[1,3]imidazo[1,2-c] pyrimidine-5-thione prepared in Preparation Example 36 in place of 7-amino-1-methyl[1,3]imidazo[1,2-c]pyrimidine-5-thione to yield 190mg and 180mg of the title compound(a) and (b), respectively, as white solids.
(§2) These MIC values were taken by employing a two-fold dilution method: that is, two-fold serial dilutions of each of the test compounds were made and dispersed in a Müller-Hinton agar medium; 2µl of the standard test strain which had the 10⁷ CFU(Colony Forming Unit) per ml was inoculated on the medium; and these were incubated at 37°C for 20 hours.

[2] = system: Bacillus cereus ATCC 11778
Protocol: as §1, §2

[3] = system: Bacillus megaterium ATCC 9885
Protocol: as §1, §2

[4] = system: Citrobacter freundii ATCC 8090
Protocol: as §1, §2

[5] = system: Enterobacter aerogenes ATCC 29751
Protocol: as §1, §2

[6] = system: Enterobacter cloacae ATCC 27508
Protocol: as §1, §2

[7] = system: Escherichia coli ATCC 10536
Protocol: as §1, §2

[8] = system: Escherichia coli ATCC 25922
Protocol: as §1, §2

[9] = system: Klebsiella pneumoniae ATCC 10031
Protocol: as §1, §2

[10] = system: Micrococcus luteus ATCC 9341
Protocol: as §1, §2

[11] = system: Morganella morganii ATCC 8076h
Protocol: as §1, §2

[12] = system: Proteus mirabilis ATCC 25933
Protocol: as §1, §2

[13] = system: Proteus vulgaris ATCC 6059
Protocol: as §1, §2

[14] = system: Providencia rettgeri ATCC 9250
Protocol: as §1, §2

[15] = system: Pseudomonas aeruginosa ATCC 10145
Protocol: as §1, §2

[16] = system: Pseudomonas aeruginosa ATCC 25619
Protocol: as §1, §2

[17] = system: Pseudomonas aeruginosa ATCC 27853
Protocol: as §1, §2

[18] = system: Salmonella typhimurium ATCC 14028
Protocol: as §1, §2

[19] = system: Serratia marcescens ATCC 27117
Protocol: as §1, §2

[20] = system: Shigella flexneri ATCC 11836
Protocol: as §1, §2

[21] = system: Shigella sonnei ATCC 11060
Protocol: as §1, §2

[22] = system: Staphylococcus aureus ATCC 10537
Protocol: as §1, §2

[23] = system: Staphylococcus aureus ATCC 6538p
Protocol: as §1, §2

[24] = system: Staphylococcus epidermidis ATCC 12228
Protocol: as §1, §2

[25] = system: Streptococcus faecalis ATCC 29212
Protocol: as §1, §2

| Compound | MIC values against the standard strains [1] [µg/mL] | MIC values against the standard strains [2] [µg/mL] | MIC values against the standard strains [3] [µg/mL] | MIC values against the standard strains [4] [µg/mL] | MIC values against the standard strains [5] [µg/mL] | MIC values against the standard strains [6] [µg/mL] | MIC values against the standard strains [7] [µg/mL] | MIC values against the standard strains [8] [µg/mL] | MIC values against the standard strains [9] [µg/mL] | MIC values against the standard strains [10] [µg/mL] | MIC values against the standard strains [11] [µg/mL] | MIC values against the standard strains [12] [µg/mL] | MIC values against the standard strains [13] [µg/mL] | MIC values against the standard strains [14] [µg/mL] | MIC values against the standard strains [15] [µg/mL] | MIC values against the standard strains [16] [µg/mL] | MIC values against the standard strains [17] [µg/mL] | MIC values against the standard strains [18] [µg/mL] | MIC values against the standard strains [19] [µg/mL] | MIC values against the standard strains [20] [µg/mL] | also measured |
| --- | --- | --- | --- | --- | --- | --- | --- | --- | --- | --- | --- | --- | --- | --- | --- | --- | --- | --- | --- | --- | --- |
| 7-[(Z)-2-(2-aminothiazol-4-yl)-2-(methoxy-imino)acetamido]-3-(7-amino-1-methyl[1,2,4]triazolo[1,5-c]pyrimidinium-5-yl)thiomethyl-3-cephem-4-carboxylate [Exp. 46] | 2 | 8 | 0.063 | 0.031 | 0.13 | ≤0.008 | 0.031 | 0.031 | ≤0.008 | 0.016 | ≤0.008 | 0.13 | 0.063 | ≤0.008 | 4 | 2 | 2 | 0.063 | 0.13 | 0.016 | MIC values against the standard strains [21]: 0.063 µg/mL; MIC values against the standard strains [22]: 0.063 µg/mL; MIC values against the standard strains [23]: 0.13 µg/mL; MIC values against the standard strains [24]: 0.063 µg/mL; MIC values against the standard strains [25]: 16 µg/mL |
| 7-[(Z)-2-(2-aminothiazol-4-yl)-2-((S-1-carboxyeth-1-oxyimino)acetamido]-3-(7-amino-1-methyl [1,2,4]triazolo[1,5-c]pyrimidinium-5-yl)thiomethyl-3-cephem-4-carboxylate [Exp. 22(S)] | 4 | 128 | 0.25 | 0.063 | 0.5 | 0.016 | 0.031 | 0.13 | 0.031 | 0.13 | ≤0.008 | 0.25 | 0.31 | ≤0.008 | 2 | 1 | 2 | 0.25 | 0.13 | 0.13 | MIC values against the standard strains [21]: 0.063 µg/mL; MIC values against the standard strains [22]: 2 µg/mL; MIC values against the standard strains [23]: 4 µg/mL; MIC values against the standard strains [24]: 1 µg/mL; MIC values against the standard strains [25]: >128 µg/mL |
| 7-[(Z)-2-(5-amino-1,2,4-thiadiazol-3-yl)-2-(ethoxyimino)acetamido]-3-(7-amino-1-methyl[1,2,4] triazolo[1,5-c]pyrimidinium-5-yl)thiomethyl-3-cephem-4-carboxylate [Exp. 72] | 1 | 16 | 0.063 | 0.063 | 0.25 | ≤0.008 | 0.063 | 0.063 | 0.016 | 0.016 | ≤0.008 | 0.25 | 0.5 | ≤0.008 | 4 | 1 | 4 | 0.25 | 0.25 | 0.031 | MIC values against the standard strains [21]: 0.063 µg/mL; MIC values against the standard strains [22]: 0.13 µg/mL; MIC values against the standard strains [23]: 0.25 µg/mL; MIC values against the standard strains [24]: 0.25 µg/mL; MIC values against the standard strains [25]: 8 µg/mL |
| CCC(C)(O/N=C(\C(=O)NC1C(=O)N2C(C(=O)[O-])=C(CSc3nc(N)cc4n3nc(N)[n+]4C)CS[C@H]12)c1csc(N)n1)C(=O)O (stereo partly shown) [Exp. 96(b), 7-[(Z)-2-(2-aminothiazol-4-yl)-2-(2-carboxybut-2-oxyimino)acetamido]-3-(2,7-diamino-1-methyl[1,2,4]triazolo[1,5-c]pyrimidinium-5-yl)thiomethyl-3-cephem-4-carboxylate] | 4 (≈ 5.9 µM) | 16 (≈ 23.6 µM) | 0.25 (≈ 0.369 µM) | 0.13 (≈ 0.192 µM) | 0.5 (≈ 0.738 µM) | 0.063 (≈ 0.093 µM) | 0.13 (≈ 0.192 µM) | 0.13 (≈ 0.192 µM) | ≤0.008 | 0.016 (≈ 0.0236 µM) | ≤0.008 | 0.13 (≈ 0.192 µM) | 0.063 (≈ 0.093 µM) | ≤0.008 | 2 (≈ 2.95 µM) | 0.5 (≈ 0.738 µM) | 1 (≈ 1.48 µM) | 0.25 (≈ 0.369 µM) | 0.13 (≈ 0.192 µM) | 0.031 (≈ 0.0457 µM) | MIC values against the standard strains [21]: 0.13 µg/mL (≈ 0.192 µM); MIC values against the standard strains [22]: 1 µg/mL (≈ 1.48 µM); MIC values against the standard strains [23]: 1 µg/mL (≈ 1.48 µM); MIC values against the standard strains [24]: 0.5 µg/mL (≈ 0.738 µM); MIC values against the standard strains [25]: 16 µg/mL (≈ 23.6 µM) |
